Measurements published in ChEMBL document CHEMBL5370650, “Discovery of Clinical Candidate NT-0796, a Brain-Penetrant and Highly Potent NLRP3 Inflammasome Inhibitor for Neuroinflammatory Disorders” (J Med Chem, 2023).
≈ marks a conversion by molar mass, not a printed value. Each block holds one molecule with its values, some of them ahead of it. Calls of active or inactive are those of the source. No cut-off for these calls is given here.

Legend:
[1] = target: T1, NACHT, LRR and PYD domains-containing protein 3 (Homo sapiens, UniProt Q96P20); test: Inhibition of NLRP3 inflammasome activation in LPS-activated human PBMC cells assessed as inhibition of ATP/nigericin induced IL-1beta secretion preincubated with LPS for 3 hrs followed by compound addition for 30 mins and further stimulated with ATP for 1 hr by ELISA; type: cell-based
T1 sequence (Q96P20 whole entry, the tested form may be a part): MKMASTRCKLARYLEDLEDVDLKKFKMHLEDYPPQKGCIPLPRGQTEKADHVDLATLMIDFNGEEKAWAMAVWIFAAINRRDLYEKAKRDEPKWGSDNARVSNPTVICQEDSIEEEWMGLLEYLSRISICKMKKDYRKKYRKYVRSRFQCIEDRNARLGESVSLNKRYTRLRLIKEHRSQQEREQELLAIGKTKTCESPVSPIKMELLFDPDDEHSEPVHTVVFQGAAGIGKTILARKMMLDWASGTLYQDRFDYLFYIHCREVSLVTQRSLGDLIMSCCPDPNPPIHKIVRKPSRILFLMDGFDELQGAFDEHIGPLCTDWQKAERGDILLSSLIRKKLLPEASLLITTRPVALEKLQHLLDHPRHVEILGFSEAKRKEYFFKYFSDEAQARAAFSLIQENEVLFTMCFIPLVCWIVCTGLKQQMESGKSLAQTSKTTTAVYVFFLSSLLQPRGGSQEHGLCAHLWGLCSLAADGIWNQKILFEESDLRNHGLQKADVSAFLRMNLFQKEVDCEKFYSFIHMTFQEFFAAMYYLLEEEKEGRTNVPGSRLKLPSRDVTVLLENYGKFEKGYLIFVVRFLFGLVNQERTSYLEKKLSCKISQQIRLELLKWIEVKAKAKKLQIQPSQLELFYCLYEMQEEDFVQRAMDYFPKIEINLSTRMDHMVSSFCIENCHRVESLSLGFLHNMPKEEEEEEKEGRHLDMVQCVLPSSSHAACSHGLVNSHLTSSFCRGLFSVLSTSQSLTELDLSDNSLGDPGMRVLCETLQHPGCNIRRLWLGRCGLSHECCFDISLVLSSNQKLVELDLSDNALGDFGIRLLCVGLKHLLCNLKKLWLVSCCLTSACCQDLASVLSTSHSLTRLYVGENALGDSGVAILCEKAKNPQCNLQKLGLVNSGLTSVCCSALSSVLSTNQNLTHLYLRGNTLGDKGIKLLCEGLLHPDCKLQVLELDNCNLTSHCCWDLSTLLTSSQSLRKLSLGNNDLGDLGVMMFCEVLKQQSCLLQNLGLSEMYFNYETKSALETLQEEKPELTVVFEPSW

[2] = target: T1, NACHT, LRR and PYD domains-containing protein 3; test: Inhibition of NLRP3 inflammasome activation in human whole blood assessed as inhibition of LPS/ATP induced IL-1beta secretion preincubated with LPS for 3 hrs followed by compound addition for 30 mins and further stimulated with ATP for 60 mins by ELISA; type: tissue-based
[3] = Permeability of compound at pH 7.4 incubated for 4 hrs by […] based PAMPA assay; type: ADME; conditions: read-out: permeability
[4] = Kinetic solubility of compound in PBS at pH7.4 at 1 to 200 uM incubated for 24 hrs by LC-UV analysis; type: physicochemical; conditions: pH 7.4, dose 1-200 µM, read-out: Kinetic_solubility
Cytochrome P450 2C19 = Cytochrome P450 2C19 (Homo sapiens, UniProt P33261); test: Reversible inhibition of CYP2C19 in human liver microsomes using S-mephenytoin as substrate incubated for 20 mins in presence of NADPH by LC-MS/MS analysis; type: ADME, Microsome
Cytochrome P450 2C19, sequence (P33261 whole entry): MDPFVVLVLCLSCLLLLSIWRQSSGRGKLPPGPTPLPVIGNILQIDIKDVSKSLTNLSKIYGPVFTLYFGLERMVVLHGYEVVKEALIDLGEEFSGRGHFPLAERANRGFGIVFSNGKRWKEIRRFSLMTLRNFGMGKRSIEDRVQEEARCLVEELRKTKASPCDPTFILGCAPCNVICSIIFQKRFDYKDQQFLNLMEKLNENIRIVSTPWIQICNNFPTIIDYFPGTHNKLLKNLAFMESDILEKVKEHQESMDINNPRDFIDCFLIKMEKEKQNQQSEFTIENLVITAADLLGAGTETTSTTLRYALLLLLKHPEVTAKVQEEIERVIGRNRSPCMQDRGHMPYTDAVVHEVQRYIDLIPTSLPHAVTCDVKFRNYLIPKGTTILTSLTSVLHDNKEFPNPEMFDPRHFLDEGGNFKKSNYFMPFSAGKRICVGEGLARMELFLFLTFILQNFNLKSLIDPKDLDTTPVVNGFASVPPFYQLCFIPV

Cytochrome P450 1A2 = target: T2, Cytochrome P450 1A2 (Homo sapiens, UniProt P05177); test: Reversible inhibition of CYP1A2 in human liver microsomes in presence of NADPH by LC-MS/MS analysis; type: ADME, Microsome
T2 sequence (P05177 whole entry): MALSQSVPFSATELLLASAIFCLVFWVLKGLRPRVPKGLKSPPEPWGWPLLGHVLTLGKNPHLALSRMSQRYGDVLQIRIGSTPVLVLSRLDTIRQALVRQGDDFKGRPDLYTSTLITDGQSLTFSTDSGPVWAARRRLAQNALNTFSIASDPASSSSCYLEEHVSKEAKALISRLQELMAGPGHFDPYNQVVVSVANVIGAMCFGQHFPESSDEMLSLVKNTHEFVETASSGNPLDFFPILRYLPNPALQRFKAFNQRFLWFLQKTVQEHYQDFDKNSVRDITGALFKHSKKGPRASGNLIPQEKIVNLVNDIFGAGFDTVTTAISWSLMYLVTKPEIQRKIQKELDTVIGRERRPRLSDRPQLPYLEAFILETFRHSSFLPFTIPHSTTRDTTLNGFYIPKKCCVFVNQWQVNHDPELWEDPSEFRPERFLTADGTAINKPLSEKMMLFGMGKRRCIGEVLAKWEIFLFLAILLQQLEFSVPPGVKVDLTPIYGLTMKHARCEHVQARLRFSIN

[5] = Inhibition of LPS-induced TNFalpha secretion in human PBMC cells incubated for 4 hrs by ELISA
[6] = Inhibition of LPS-induced IL-6 secretion in human PBMC cells incubated for 4 hrs by ELISA
Cytochrome P450 2C9 = Cytochrome P450 2C9 (Homo sapiens, UniProt P11712); test: Reversible inhibition of CYP2C9 in human liver microsomes in presence of NADPH by LC-MS/MS analysis; type: ADME, Microsome
Cytochrome P450 2C9, sequence (P11712 whole entry): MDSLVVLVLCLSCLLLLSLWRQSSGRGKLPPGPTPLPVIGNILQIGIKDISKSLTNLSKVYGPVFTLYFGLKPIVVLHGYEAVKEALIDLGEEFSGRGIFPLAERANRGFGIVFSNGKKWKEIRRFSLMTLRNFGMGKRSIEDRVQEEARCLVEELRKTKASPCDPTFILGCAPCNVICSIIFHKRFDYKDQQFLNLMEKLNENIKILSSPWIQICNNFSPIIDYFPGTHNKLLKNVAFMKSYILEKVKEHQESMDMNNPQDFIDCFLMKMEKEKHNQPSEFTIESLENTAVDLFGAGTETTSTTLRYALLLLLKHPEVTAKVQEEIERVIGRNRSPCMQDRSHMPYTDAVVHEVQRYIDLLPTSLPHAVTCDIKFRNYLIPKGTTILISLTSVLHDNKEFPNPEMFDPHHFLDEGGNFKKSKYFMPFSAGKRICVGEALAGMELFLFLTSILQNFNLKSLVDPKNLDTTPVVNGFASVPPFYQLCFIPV

Cytochrome P450 2D6 = Cytochrome P450 2D6 (Homo sapiens, UniProt P10635); test: Reversible inhibition of CYP2D6 in human liver microsomes in presence of NADPH by LC-MS/MS analysis; type: ADME, Microsome
Cytochrome P450 2D6, sequence (P10635 whole entry): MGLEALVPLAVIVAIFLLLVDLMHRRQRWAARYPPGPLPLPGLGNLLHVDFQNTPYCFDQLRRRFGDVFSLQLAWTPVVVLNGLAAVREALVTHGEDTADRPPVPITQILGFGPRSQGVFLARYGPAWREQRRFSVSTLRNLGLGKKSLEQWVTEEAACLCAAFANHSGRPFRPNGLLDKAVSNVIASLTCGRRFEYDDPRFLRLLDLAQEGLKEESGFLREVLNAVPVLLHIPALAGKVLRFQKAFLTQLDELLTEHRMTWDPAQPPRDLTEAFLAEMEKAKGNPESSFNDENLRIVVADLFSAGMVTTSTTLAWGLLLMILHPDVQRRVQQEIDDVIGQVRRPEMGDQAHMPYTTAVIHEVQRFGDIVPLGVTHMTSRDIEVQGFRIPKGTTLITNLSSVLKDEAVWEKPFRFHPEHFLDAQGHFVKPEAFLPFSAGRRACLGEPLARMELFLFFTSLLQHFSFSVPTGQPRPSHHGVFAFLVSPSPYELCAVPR

Cytochrome P450 3A4 [7] = target: T3, Cytochrome P450 3A4 (Homo sapiens, UniProt P08684); test: Reversible inhibition of CYP3A4 in human liver microsomes using nifedipine as substrate incubated for 5 mins in presence of NADPH by LC-MS/MS analysis; type: ADME, Microsome
T3 sequence (P08684 whole entry): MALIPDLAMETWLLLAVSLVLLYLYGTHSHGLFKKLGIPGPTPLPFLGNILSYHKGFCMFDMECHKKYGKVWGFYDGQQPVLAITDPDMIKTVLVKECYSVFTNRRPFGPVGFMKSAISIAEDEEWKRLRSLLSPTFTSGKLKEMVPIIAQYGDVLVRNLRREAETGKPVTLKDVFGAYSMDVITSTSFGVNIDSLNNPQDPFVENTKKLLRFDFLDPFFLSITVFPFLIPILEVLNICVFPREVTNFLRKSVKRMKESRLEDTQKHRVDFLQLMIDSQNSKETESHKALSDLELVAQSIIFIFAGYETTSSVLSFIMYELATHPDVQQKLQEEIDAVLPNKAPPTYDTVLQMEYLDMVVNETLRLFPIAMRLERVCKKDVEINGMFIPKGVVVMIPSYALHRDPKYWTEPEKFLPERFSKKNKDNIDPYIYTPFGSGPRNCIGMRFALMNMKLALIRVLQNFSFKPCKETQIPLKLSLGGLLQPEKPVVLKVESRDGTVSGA

[8] = target: 5-hydroxytryptamine receptor 2B (Homo sapiens) (UniProt P41595); test: Antagonist activity at 5HT2B (unknown origin) at 10 uM by Eurofins-CEREP panel assay relative to control; type: functional; design: scale not given: the % may be the effect or the level left; conditions: filed as antagonist
5-hydroxytryptamine receptor 2B (Homo sapiens), sequence (P41595 whole entry): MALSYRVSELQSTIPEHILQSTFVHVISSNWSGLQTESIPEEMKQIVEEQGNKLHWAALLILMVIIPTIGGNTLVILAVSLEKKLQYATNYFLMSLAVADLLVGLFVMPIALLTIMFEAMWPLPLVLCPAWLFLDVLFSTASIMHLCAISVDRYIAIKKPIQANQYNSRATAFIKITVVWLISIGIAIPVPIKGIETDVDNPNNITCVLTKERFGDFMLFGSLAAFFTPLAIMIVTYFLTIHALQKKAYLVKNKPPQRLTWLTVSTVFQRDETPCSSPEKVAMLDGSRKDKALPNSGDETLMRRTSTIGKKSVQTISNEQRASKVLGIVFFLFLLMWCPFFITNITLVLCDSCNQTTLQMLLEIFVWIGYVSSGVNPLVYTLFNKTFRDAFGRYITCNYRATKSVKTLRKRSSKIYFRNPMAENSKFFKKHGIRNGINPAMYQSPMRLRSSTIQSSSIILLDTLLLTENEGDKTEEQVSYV

Cytochrome P450 2B6 = target: T4, Cytochrome P450 2B6 (Homo sapiens, UniProt P20813); test: Reversible inhibition of CYP2B6 in human liver microsomes in presence of NADPH by LC-MS/MS analysis; type: ADME, Microsome
T4 sequence (P20813 whole entry): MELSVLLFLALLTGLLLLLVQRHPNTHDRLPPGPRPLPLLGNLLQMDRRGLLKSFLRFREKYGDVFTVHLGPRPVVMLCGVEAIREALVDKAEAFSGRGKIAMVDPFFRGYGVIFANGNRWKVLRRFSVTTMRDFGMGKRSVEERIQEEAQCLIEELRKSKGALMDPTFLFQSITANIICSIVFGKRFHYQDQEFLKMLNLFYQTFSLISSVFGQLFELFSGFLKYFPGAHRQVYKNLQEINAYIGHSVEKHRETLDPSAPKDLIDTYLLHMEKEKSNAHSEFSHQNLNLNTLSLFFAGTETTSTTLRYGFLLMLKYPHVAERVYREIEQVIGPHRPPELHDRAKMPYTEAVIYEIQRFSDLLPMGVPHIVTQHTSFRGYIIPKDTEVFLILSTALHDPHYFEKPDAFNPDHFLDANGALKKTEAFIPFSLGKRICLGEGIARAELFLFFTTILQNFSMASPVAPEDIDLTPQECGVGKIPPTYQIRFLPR

Cytochrome P450 2C8 = target: T5, Cytochrome P450 2C8 (Homo sapiens, UniProt P10632); test: Reversible inhibition of CYP2C8 in human liver microsomes in presence of NADPH by LC-MS/MS analysis; type: ADME, Microsome
T5 sequence (P10632 whole entry): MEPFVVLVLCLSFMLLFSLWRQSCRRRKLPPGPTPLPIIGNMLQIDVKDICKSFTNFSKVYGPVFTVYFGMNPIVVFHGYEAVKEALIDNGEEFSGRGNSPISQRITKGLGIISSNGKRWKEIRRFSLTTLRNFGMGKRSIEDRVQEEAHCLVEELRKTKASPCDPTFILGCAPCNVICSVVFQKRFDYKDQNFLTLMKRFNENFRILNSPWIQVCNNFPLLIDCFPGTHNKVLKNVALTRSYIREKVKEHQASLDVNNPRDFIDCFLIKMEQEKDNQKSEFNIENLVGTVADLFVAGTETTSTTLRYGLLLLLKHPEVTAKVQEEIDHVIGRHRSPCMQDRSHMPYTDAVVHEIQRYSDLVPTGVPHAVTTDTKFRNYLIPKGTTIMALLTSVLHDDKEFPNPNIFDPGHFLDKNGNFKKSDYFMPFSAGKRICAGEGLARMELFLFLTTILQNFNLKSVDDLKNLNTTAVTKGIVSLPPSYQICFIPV

Cytochrome P450 3A4 [9] = target: T3, Cytochrome P450 3A4; test: Reversible inhibition of CYP3A4 in human liver microsomes using midazolam as substrate in presence of NADPH by LC-MS/MS analysis; type: ADME, Microsome
[10] = target: Voltage-gated inwardly rectifying potassium channel KCNH2 (Homo sapiens, UniProt Q12809); test: Inhibition of hERG transfected in CHO cells at -80 mV holding potential by Whole-cell patch clamp assay; type: toxicity, cell-based
Voltage-gated inwardly rectifying potassium channel KCNH2, sequence (Q12809 whole entry): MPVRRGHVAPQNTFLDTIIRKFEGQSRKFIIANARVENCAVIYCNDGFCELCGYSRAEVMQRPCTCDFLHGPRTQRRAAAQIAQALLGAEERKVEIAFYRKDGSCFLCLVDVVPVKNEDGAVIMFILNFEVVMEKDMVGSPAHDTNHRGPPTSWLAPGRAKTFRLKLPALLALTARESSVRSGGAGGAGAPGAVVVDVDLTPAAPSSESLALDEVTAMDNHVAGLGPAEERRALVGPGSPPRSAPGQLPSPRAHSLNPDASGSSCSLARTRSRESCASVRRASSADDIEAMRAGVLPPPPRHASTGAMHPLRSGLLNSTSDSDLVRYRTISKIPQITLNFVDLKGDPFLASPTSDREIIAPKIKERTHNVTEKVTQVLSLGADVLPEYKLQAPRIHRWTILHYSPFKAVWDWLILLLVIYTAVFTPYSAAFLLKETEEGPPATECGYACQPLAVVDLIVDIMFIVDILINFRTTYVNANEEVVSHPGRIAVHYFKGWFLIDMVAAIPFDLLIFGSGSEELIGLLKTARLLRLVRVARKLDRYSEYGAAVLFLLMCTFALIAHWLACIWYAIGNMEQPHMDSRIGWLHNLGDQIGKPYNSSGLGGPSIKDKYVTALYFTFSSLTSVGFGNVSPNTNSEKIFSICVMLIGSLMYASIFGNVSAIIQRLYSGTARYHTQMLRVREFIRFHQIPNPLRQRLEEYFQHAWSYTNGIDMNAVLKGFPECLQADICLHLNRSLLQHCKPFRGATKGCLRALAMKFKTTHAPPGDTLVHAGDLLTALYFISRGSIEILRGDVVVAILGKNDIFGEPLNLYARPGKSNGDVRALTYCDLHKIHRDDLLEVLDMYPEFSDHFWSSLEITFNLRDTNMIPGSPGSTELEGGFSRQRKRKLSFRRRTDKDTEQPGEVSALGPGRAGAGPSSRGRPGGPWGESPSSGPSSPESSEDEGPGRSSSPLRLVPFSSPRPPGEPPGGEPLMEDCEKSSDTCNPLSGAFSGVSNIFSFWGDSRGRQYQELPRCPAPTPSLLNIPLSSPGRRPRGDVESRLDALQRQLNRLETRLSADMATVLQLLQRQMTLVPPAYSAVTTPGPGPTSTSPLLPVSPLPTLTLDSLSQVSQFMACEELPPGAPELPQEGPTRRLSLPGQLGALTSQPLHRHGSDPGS

[11] = Phototoxicity in mouse BALB/3T3 clone A31 cells incubated under dark condition for 1 hr followed by 2.5 J/cm2 UVA light irradiation for 18 mins by neutral red dye based assay; type: toxicity, cell-based; conditions: balb/3t3 clone a31, 1.3 h, time 78 min
[12] = Mutagenicity in Salmonella typhimurium by Ames test; type: toxicity; conditions: salmonella enterica subsp. enterica serovar typhimurium
HepG2 = test: Induction of phospholipidosis in human HepG2 cells assessed as increase in phospholipids within lysosome by high content screening analysis; type: toxicity, cell-based
[13] = Induction of steatosis in human HepG2 cells assessed as accumulation of triglycerides in cytoplasm by high content screening analysis; type: toxicity, cell-based
[14] = Drug concentration in C57BL/6J mouse blood at 3 mg/kg, iv measured after 5 mins by LC-MS/MS analysis; type: ADME, organism-based; conditions: read-out: Ct
[15] = Drug concentration in C57BL/6J mouse brain at 3 mg/kg, iv measured after 5 mins by LC-MS/MS analysis; type: ADME, organism-based; conditions: read-out: Ct
[16] = Ratio of drug concentration in C57BL/6J mouse brain to blood at 3 mg/kg, iv measured after 5 mins by LC-MS/MS analysis; type: ADME, organism-based; conditions: read-out: BBR
NLRC4 (Homo sapiens) = test: Inhibition of NLRC4 inflammasome activation in human PBMC assessed as reduction in IL-1beta secretion at 3 nM preincubated with LPS for 2.5 hrs followed by compound addition for 30 mins by ELISA

Structure (SMILES): CCOC(=O)COC(=O)Nc1c(F)cccc1F
IC50 [1]: 1.9 µM
IC50 [2]: 9.4 µM

Structure (SMILES): CCOC(=O)COC(=O)Nc1c(C)cccc1C
IC50 [1]: 0.93 µM
IC50 [2]: 1.1 µM

Structure (SMILES): CCOC(=O)COC(=O)Nc1c(CC)cccc1CC
IC50 [1]: 0.81 µM
IC50 [2]: 13 µM

Structure (SMILES): CCOC(=O)COC(=O)Nc1c(C)cccc1CC
IC50 [1]: 1.5 µM
IC50 [2]: 2.4 µM

Structure (SMILES): CCOC(=O)COC(=O)Nc1c(Cl)cccc1Cl
IC50 [1]: 1 µM
IC50 [2]: 9.2 µM

Structure (SMILES): CCOC(=O)COC(=O)Nc1ccccc1C(F)(F)F
IC50 [1]: > 20 µM
IC50 [2]: > 20 µM

Structure (SMILES): CCOC(=O)COC(=O)Nc1ccccc1C(C)C
IC50 [1]: 1.6 µM
IC50 [2]: 5.5 µM

Structure (SMILES): CCOC(=O)COC(=O)Nc1c(C(C)C)cccc1C(C)C
IC50 [1]: 10 µM
IC50 [2]: > 20 µM

Structure (SMILES): CCOC(=O)COC(=O)N(C)c1c2c(cc3c1CCC3)CCC2
IC50 [1]: > 40 µM
IC50 [2]: > 40 µM

Structure (SMILES): CCOC(=O)COC(=O)Nc1cc(C)ccc1C
IC50 [1]: 0.97 µM
IC50 [2]: 2.9 µM

Structure (SMILES): CC(C)(O)c1coc(S(=O)(=O)NC(=O)Nc2c3c(cc4c2CCC4)CCC3)c1
IC50 [5]: > 40 µM
IC50 [6]: > 40 µM
Papp at 4 h [3]: < 0.0003 ×10⁻⁶ cm/s

Structure (SMILES): CCOC(=O)COC(=O)Nc1ccccc1OC(F)(F)F
IC50 [1]: > 20 µM
IC50 [2]: > 20 µM

Structure (SMILES): CCOC(=O)COC(=O)Nc1ccccc1C#N
IC50 [1]: 5.5 µM
IC50 [2]: 6.8 µM

Structure (SMILES): CCOC(=O)COC(=O)Nc1c(C)cc(C)cc1C
IC50 [1]: 0.59 µM
IC50 [2]: 3.9 µM

Continued, in another order:

Papp at 4 h [3]: 5 ×10⁻⁶ cm/s
solubility kinetic at 24 h [4]: < 1 µM
IC50 (Cytochrome P450 2C19): 4.4 µM
Structure (SMILES): CC(C)OC(=O)[C@@H](Cn1cc(C#N)cn1)OC(=O)Nc1c2c(cc3c1CCC3)CCC2

Papp at 4 h [3]: 13.7 ×10⁻⁶ cm/s
solubility kinetic at 24 h [4]: 5.5 µM (≈ 2.25 µg/mL)
IC50 (Cytochrome P450 1A2): 1.1 µM
Structure (SMILES): CC(C)OC(=O)[C@@H](Cc1cnccn1)OC(=O)Nc1c2c(cc3c1CCC3)CCC2

IC50 [5]: > 2 µM
IC50 [6]: > 2 µM
Papp at 4 h [3]: 11.8 ×10⁻⁶ cm/s
solubility kinetic at 24 h [4]: 28 µM (≈ 11.5 µg/mL)
IC50 (Cytochrome P450 2C19): > 30 µM
IC50 (Cytochrome P450 1A2): > 30 µM
IC50 (Cytochrome P450 2C9): > 30 µM
IC50 (Cytochrome P450 2D6): > 30 µM
IC50 (Cytochrome P450 3A4 [7]): > 30 µM
Activity [8]: 90%
IC50 (Cytochrome P450 2B6): > 30 µM
IC50 (Cytochrome P450 2C8): > 30 µM
IC50 (Cytochrome P450 3A4 [9]): > 30 µM
concentration at 5 min [14]: 610 ng/mL
concentration at 5 min [15]: 479 ng/g
Kp at 5 min [16]: 0.79
inhibition (NLRC4 (Homo sapiens)): inactive
Structure (SMILES): CC(C)OC(=O)[C@@H](Cc1ncccn1)OC(=O)Nc1c2c(cc3c1CCC3)CCC2 [NT-0796]
IC50 [10]: > 30 µM
Activity [11]: Non-Toxic
Activity [12]: Non-Toxic
MEC (HepG2): > 40 µM
MEC [13]: > 40 µM

Papp at 4 h [3]: 3.5 ×10⁻⁶ cm/s
solubility kinetic at 24 h [4]: < 1 µM
Structure (SMILES): O=C(Nc1c2c(cc3c1CCC3)CCC2)O[C@H](Cc1ncccn1)C(=O)OC1CCCC1

IC50 [1]: > 40 µM
IC50 [2]: > 40 µM
Structure (SMILES): CCOC(=O)CNC(=O)Oc1c2c(cc3c1CCC3)CCC2

IC50 [5]: 2.7 µM
IC50 [6]: 4.3 µM
Papp at 4 h [3]: 8.2 ×10⁻⁶ cm/s
Structure (SMILES): CCOC(=O)[C@@H](Cc1ncccn1)NC(=O)Nc1c2c(cc3c1CCC3)CCC2

Papp at 4 h [3]: 13.7 ×10⁻⁶ cm/s
solubility kinetic at 24 h [4]: 37 µM (≈ 14.7 µg/mL)
IC50 (Cytochrome P450 1A2): 0.18 µM
Structure (SMILES): CC(C)OC(=O)[C@@H](Cn1cncn1)OC(=O)Nc1c2c(cc3c1CCC3)CCC2

IC50 [1]: > 40 µM
IC50 [2]: > 40 µM
Structure (SMILES): COC(=O)CN(C)C(=O)Nc1c2c(cc3c1CCC3)CCC2

IC50 [1]: 0.066 µM
IC50 [2]: 4.7 µM
Papp at 4 h [3]: < 0.0002 ×10⁻⁶ cm/s
solubility kinetic at 24 h [4]: > 200 µM
IC50 (Cytochrome P450 2C19): > 30 µM
IC50 (Cytochrome P450 1A2): > 30 µM
IC50 (Cytochrome P450 2C9): > 30 µM
IC50 (Cytochrome P450 2D6): > 30 µM
IC50 (Cytochrome P450 3A4 [7]): > 30 µM
concentration at 5 min [14]: 1160 ng/mL
concentration at 5 min [15]: 91.7 ng/g
Kp at 5 min [16]: 0.07
Structure (SMILES): O=C(Nc1c2c(cc3c1CCC3)CCC2)O[C@H](Cc1ncccn1)C(=O)O
